Here are results for eight molecules from ChEMBL document CHEMBL1133739, “Fenchylamine sulfonamide inhibitors of amyloid beta peptide production by the gamma-secretase proteolytic pathway: potential small-molecule therapeutic agents for the treatment of Alzheimer's disease” (J Med Chem, 2000).

In test [1] the target is Amyloid-beta precursor protein (Homo sapiens) (UniProt P05067). Briefly: Observed stimulation of the production of soluble beta-amyloid precursor protein. It is filed as functional.
Chain of Amyloid-beta precursor protein (Homo sapiens) (P05067 whole entry): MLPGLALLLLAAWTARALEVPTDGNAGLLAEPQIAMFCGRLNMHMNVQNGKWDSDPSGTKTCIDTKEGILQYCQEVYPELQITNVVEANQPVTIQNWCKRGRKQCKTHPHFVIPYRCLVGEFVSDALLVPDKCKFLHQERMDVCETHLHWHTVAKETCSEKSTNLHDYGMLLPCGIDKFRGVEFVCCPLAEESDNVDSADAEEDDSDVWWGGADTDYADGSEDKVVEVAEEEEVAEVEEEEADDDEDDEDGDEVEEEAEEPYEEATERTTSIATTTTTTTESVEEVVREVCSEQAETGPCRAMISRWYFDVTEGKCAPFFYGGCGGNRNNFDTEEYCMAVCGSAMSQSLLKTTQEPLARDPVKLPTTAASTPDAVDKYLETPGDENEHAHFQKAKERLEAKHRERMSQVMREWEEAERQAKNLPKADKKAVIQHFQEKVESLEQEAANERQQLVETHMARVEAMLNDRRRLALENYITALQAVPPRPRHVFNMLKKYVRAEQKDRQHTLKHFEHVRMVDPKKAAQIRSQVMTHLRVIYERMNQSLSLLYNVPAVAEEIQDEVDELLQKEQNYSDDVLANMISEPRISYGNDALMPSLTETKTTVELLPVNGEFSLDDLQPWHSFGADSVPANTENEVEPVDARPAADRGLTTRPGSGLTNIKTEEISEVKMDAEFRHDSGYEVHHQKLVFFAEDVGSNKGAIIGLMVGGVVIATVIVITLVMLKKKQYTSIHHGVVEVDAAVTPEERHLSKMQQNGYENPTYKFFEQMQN
The target is the same in test [2]. The experiment in a line: Inhibition of A-beta-42 production by inhibiting Gamma-secretase proteolytic pathway in HEK293 cell stably transfected with a double mutant form of human APP(K595N/M596L), at 2.5 uM concentration. The test is classed as cell-based.

The inhibition is the change of the read-out against control, counted positive when it falls.

SMILES strings stand for the structures.

Molecule `CC12CCC(C1)C(C)(C)C2NS(=O)(=O)c1ccc(F)cc1` (stereo not drawn) came in with a Stimulation in test [1] of 20%. The same molecule yielded an inhibition in test [2] of 31%.

With `CC1(C)[C@@H]2CC[C@@](C)(C2)[C@H]1NS(=O)(=O)c1ccc(F)cc1`, in test [2], the inhibition was 0%.

Molecule `CC12CC[C@@H](C1)C(C)(C)[C@@H]2NS(=O)(=O)c1ccc(Cl)cc1` came in with a Stimulation in test [1] of 0%. The same molecule came in with an inhibition in test [2] of 26%.

In turn, `CC12CC[C@@H](C1)C(C)(C)[C@@H]2NS(=O)(=O)c1ccc(F)cc1` (single isomer, unassigned; (+)) registered a Stimulation in test [1] of 23%. The inhibition in test [2] was determined as 58%.

On to `CC12CC[C@@H](C1)C(C)(C)[C@H]2NS(=O)(=O)c1ccc(F)cc1`, for which the inhibition in test [2] turned out to be 0%.

Consider `CC1(C)[C@H]2CC[C@](C)(C2)[C@H]1NS(=O)(=O)c1ccc(F)cc1`, for which the inhibition in test [2] is 19%.

Regarding `CC12CC[C@@H](C1)C(C)(C)[C@@H]2NS(=O)(=O)c1cccs1`, the Stimulation in test [1] was found to be 32%. In addition, the inhibition in test [2] was 47%.

In test [1], `CC12CC[C@@H](C1)C(C)(C)[C@@H]2NS(=O)(=O)c1ccc(Br)cc1` displayed a Stimulation of 0%. Also, the inhibition in test [2] was 24%.
